In publication PMC11877631, “Novel Nucleus-Oriented Quenched Activity-Based Probes Link Cathepsin Nuclear Localization with Mitosis” (ACS Sensors, 2025):

Tests used:
HeLa cells [1] = test: Live cell confocal imaging and time-lapse movies; format: cell-based, human
Experimental: (§1) NIH-3T3 or HeLa cells were seeded in an 8-well coverslip chamber (Lab-Tek) at a density of 100,000 cells per well and grown at 37 °C under 5% of CO2, 24 h later, cells were treated with 2.5 μM KRSs probes for 6 h. The medium was replaced with DMEM without phenol red, and Hoechst was added to a final concentration of 5 μg/mL. Live imaging of cells using a Zeiss LSM 710 Axio Observer.Z1 with a 63/24 Oil DIC M27 lens, in Cy3 and DAPI channels, was performed over 24 h; pictures were taken every 20–25 min. The Z-stack analysis was performed using 3–5 different depths focusing on the cell nucleus; each slice was 1–1.5 μm. Image processing was performed using NIS-Elements image acquisition software, quantifying the 63× images of several experiments and calculating the average fluorescence intensity. Statistics and standard deviation were calculated by using Microsoft Excel.

[2] = molecular target: Recombinant human cathepsin S (Homo sapiens, UniProt P25774); test: Recombinant cathepsin labeling, fluorescent SDS-PAGE; format: binding; settings: pH 5.5, 37 °C, probe intensities compared with KRS-D1(qAc), GB111-NH2 given as pretreatment before KRS probes
Recombinant human cathepsin S, sequence (P25774 115-331): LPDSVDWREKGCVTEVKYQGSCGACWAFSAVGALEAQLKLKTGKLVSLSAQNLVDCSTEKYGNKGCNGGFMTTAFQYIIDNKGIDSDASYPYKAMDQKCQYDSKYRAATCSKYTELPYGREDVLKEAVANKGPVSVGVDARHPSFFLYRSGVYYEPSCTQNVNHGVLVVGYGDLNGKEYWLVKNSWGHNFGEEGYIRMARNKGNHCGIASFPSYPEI
Experimental: (§2) Recombinant human cathepsins B (0.7 μg), L (0.6 μg), or S (0.7 μg) in reaction buffer (50 mM acetate, 5 mM MgCl2, 2 mM DTT, pH 5.5) was pretreated with the cathepsin inhibitor GB111-NH2 or vehicle for 30 min at room temp. Indicated concentrations of KRS probes were added to the samples for 30 min at 37 °C. The reaction was stopped by adding 4× sample buffer (40% glycerol, 0.2 M Tris/HCl 6.8, 20% β-mercaptoethanol, 12% SDS, and 0.4 mg/mL bromophenol blue). The samples were boiled and separated by a 12% SDS gel and scanned by a Typhoon laser scanner at Ex./Em. 535/570 nm for fluorescence.

[3] = molecular target: Recombinant human cathepsin B (Homo sapiens, UniProt P07858); test: as above; format: binding; settings: pH 5.5, 37 °C, probe intensities compared with KRS-D1(qAc), GB111-NH2 given as pretreatment before KRS probes
Experimental: as §2

[4] = molecular target: Recombinant human cathepsin L (Homo sapiens, UniProt P07711); test: as above; format: binding; settings: pH 5.5, 37 °C, probe intensities compared with KRS-D1(qAc), GB111-NH2 given as pretreatment before KRS probes
Recombinant human cathepsin L, sequence (P07711 114-333): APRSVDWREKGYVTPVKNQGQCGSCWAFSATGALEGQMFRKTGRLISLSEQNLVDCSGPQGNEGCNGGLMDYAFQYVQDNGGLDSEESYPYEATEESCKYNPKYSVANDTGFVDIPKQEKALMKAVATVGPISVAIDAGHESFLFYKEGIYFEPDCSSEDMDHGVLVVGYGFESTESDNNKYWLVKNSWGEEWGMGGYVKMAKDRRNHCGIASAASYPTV
Experimental: as §2

NIH-3T3 cells [5] = test: Live cell confocal imaging; format: cell-based, mouse; settings: NIH-3T3, 2.5 μM, 6 h; for Probe staining intensity in live cells: fluorescence microscopy; for Nuclear cathepsin labeling (confocal Z-stack, costaining with Hoechst): 63× objective
Experimental: as §1

[6] = Quenching efficiency (fluorescent plate reader); format: physicochemical; settings: lower fluorescence than average of nonquenched probes; slope ratio; 0.013–10 μM in acetate buffer pH 5.5; Ex./Em. 535/570 nm
Experimental: Increasing concentrations (0.013–10 μM) of KRS (A1-F1), in acetate buffer (50 mM acetate, 5 mM MgCl2, 2 mM DTT, pH 5.5), were prepared in a 96-well plate. Fluorescence was measured and quantified using a BioRad plate reader, Ex./Em. 535/570 nm. Arbitrary fluorescent units were plotted versus probe concentration, and the ratio between the slope of each quenched probe and the average of the nonquenched probes were determined as quenching efficiency.

[7] = molecular target: T1, intracellular cathepsin B in NIH-3T3 cells (Mus musculus, UniProt P10605); format: cell-based; settings: for Labeling of intracellular cathepsin B: live NIH-3T3, 6 h probe incubation, band intensity, in comparison to probes without the CPP
T1 construct: KRS probes freely penetrated the cells and labeled endogenous cathepsins in a dose-dependent manner; endogenous in cells; host or cells: NIH-3T3
T1 sequence (P10605 80-333 limits assumed): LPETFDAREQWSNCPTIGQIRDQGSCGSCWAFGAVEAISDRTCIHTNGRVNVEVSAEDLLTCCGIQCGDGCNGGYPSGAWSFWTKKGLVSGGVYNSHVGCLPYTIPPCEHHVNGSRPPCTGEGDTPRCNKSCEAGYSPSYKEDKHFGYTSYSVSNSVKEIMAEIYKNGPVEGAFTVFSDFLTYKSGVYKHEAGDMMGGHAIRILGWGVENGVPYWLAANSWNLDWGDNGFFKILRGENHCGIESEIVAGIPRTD
Experimental: (§3) NIH-3T3 cells (2.5 × 10^5 cells/well) were seeded in a 12-well plate 1 day prior to treatment. Cells were pretreated with inhibitor GB111-NH2 or vehicle for 30 min followed by incubation with KRS probes at indicated concentrations predissolved in 0.1% DMSO and 0.9% ethanol in a culture medium. After 6 h of probe incubation cells were washed with PBS and lysed by addition of sample buffer as described above. Lysates were boiled for 5 min, centrifuged, and separated by 12.5% SDS-PAGE. Cathepsins labeled in cells were visualized by scanning the gel with a Typhoon laser scanner at Ex./Em. 535/570 nm.

[8] = molecular target: T2, intracellular cathepsin L in NIH-3T3 cells (Mus musculus, UniProt P06797); test: Probe labeling in intact cells, fluorescent SDS-PAGE; format: cell-based; settings: live NIH-3T3, 6 h probe incubation, band intensity; in comparison to probes without the CPP
T2 construct: KRS probes freely penetrated the cells and labeled endogenous cathepsins in a dose-dependent manner; endogenous in cells; host or cells: NIH-3T3
T2 sequence (P06797 114-334): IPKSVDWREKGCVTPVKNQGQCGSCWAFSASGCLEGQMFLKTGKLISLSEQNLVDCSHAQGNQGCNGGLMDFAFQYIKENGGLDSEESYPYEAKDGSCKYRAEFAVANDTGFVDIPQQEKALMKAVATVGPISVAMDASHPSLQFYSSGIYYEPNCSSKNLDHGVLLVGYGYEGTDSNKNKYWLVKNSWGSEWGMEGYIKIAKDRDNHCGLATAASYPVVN
Experimental: as §3

HeLa cells [9] = test: Subcellular fractionation with fluorescent SDS-PAGE; format: cell-based, human; settings: 2.5 μM, 6 h; for Active cathepsin in nuclear fraction: 20 μg protein per fraction
Experimental: Cell fractionation was performed according to the manufacturer’s instructions using the Subcellular Protein Fractionation Kit for Cultured Cells (Pierce, Thermo Fisher Scientific Inc., Rockford, IL, USA, number 78840). Lysed cells were separated into subsequent cytosol, membrane, and nuclear fractions. Extracted proteins were subjected to SDS PAGE separation and fluorescence and Western blot analysis.

NIH-3T3 cells [10] = format: cell-based, mouse
Experimental: (§4) NIH-3T3 cells (2.5 × 10^5 cells/well) or HeLa cells (2.0 × 10^5 cells/well) were seeded in a 12-well plate 1 day before treatment. Cells were incubated with KRS probes at 2.5 μM predissolved in 0.1% DMSO and 0.9% ethanol in a culture medium for indicated durations. After the incubation, cells were washed with PBS and lysed by the addition of sample buffer. Samples were analyzed by fluorescent SDS-PAGE as described above.

HeLa cells [11] = format: cell-based, human
Experimental: as §4

HeLa cells [12] = test: Image Streamer flow imaging, fixed cells; format: cell-based, human; settings: 6 h, Draq5 stain
Experimental: Live or methanol fixed cells were pretreated with KRS probes at 2.5 μM for 6 h predissolved in 0.1% DMSO and 0.9% ethanol in a culture medium. After the incubation, cells were washed with PBS centrifuged and dissolved in PBS in a final volume of 50 μL. The DNA markers: Hoechst (Thermo Fisher) at a final concentration of 1 μg/mL or Draq5 (Thermo Fisher) at a final concentration of 1.5 μM were added. The samples were analyzed using an Image StreamX Flow Imager system (Merk Millipore).

| Compound | Fluorescence labeling of recombinant cathepsin S [2] | Fluorescence labeling of recombinant cathepsin B [3] | Fluorescence labeling of recombinant cathepsin L [4] | Probe staining intensity in live cells (NIH-3T3 cells [5]) | Nuclear cathepsin labeling (confocal Z-stack, costaining with Hoechst) (NIH-3T3 cells [5]) | Fold quenching (quenching efficiency) [6] | Labeling of intracellular cathepsin B [7] | Labeling of intracellular cathepsin L [8] | further results |
| --- | --- | --- | --- | --- | --- | --- | --- | --- | --- |
| Cc1cccc(C)c1C(=O)OCC(=O)[C@H](CCCCN)NC(=O)[C@H](Cc1ccccc1)NC(=O)OCc1ccccc1 [GB111-NH2, reference compound] | dramatically reduced | dramatically reduced | dramatically reduced | – | – | – | – | – | Fluorescent signal of KRS probes after inhibitor pretreatment (HeLa cells [1]; live HeLa, 2.5 μM GB111-NH2 pretreatment, then KRS-B1(qTAT) or KRS-E1(qNLS) 6 h): strongly reduced |
| Ac-Cys-Phe-Phe-Lys-(TMR-X)-AOMK-Ac [KRS-C1(Ac)] | – | – | – | relatively weak staining | – | – | – | – | – |
| Ac-Cys-Phe-Phe-Lys-(TMR-X)-AOMK-QSY7 [KRS-D1(qAc)] | – | – | – | relatively weak staining | did not detect cathepsins in the nucleus | 61 fold | – | – | – |
| NLS-Cys-Phe-Phe-Lys-(TMR-X)-AOMK-Ac [KRS-F1(NLS)] | – | – | – | intense staining | – | – | – | – | – |
| NLS-Cys-Phe-Phe-Lys-(TMR-X)-AOMK-QSY7 [KRS-E1(qNLS)] | slightly lower | slightly lower | slightly lower | intense staining | label nuclear cathepsins | 54 fold | enhanced labeling | enhanced labeling | Cell permeability / cell penetration [7]: significantly greater cell penetration; Intensity in fractions relative to KRS-B1(qTAT) (HeLa cells [9]): weaker intensity; Active cathepsin in nuclear fraction (HeLa cells [9]): clear presence of active nuclear cathepsin |
| TAT-Cys-Phe-Phe-Lys-(TMR-X)-AOMK-Ac [KRS-A1(TAT)] | – | – | – | intense staining | – | – | enhanced labeling | enhanced labeling | Binding relative to the other probes ([7]; as seen in Figures 2 and 6a): strongest binding of all probes; Permeability in time-course labeling (NIH-3T3 cells [10]): enhanced and accelerated permeability; Permeability in time-course labeling (HeLa cells [11]): enhanced and accelerated permeability |
| TAT-Cys-Phe-Phe-Lys-(TMR-X)-AOMK-QSY7 [KRS-B1(qTAT)] | slightly lower | slightly lower | slightly lower | intense staining | label nuclear cathepsins | 66 fold | enhanced labeling | enhanced labeling | Nuclear cathepsin activity (TMR-X and Draq5 similarity) (HeLa cells [12]): much higher degree; Effect on entry of cells to mitosis (HeLa cells [1]; HeLa, 2.5 μM, time-lapse over 22 h): inhibited the entry of cells to mitosis; Cell permeability / cell penetration [7]: significantly greater cell penetration; Permeability in time-course labeling (NIH-3T3 cells [10]): enhanced and accelerated permeability; Permeability in time-course labeling (HeLa cells [11]): enhanced and accelerated permeability; Active cathepsin in nuclear fraction (HeLa cells [9]): clear presence of active nuclear cathepsin |
